# Measurements taken from patent US20250179033A1 (priority 2021, published 2025).
# Where “and” joins values, the source holds several entries; their conditions need not be identical. Equal values may be shown once. Read-outs that look alike come from different tables or passages of the source.
# Tests used:
# [1] = In vivo pharmacokinetics, plasma and brain; set-up: species or system Balb/C male mice; settings: 250 mg/kg intragastric; for AUC(0-inf) / MRT / half-life / AUC(0-t) / Cmax: male, Balb/C, mouse, po; for AUC(0-inf) / MRT / half-life / AUC(0-t) / Cmax / CL / Kel / Vd: plasma; for AUC(0-t): read-out: AUC0-7
# Description: The pharmacokinetics of compound 1 was studied in white Balb/C male mice. 22 animals with an average body weight of 20 g were selected for the study. Before the study, the animals were kept on a standard vivarium ration with dry pelleted feed. All the test animals had free access to water but were deprived of food for 1 hour before administration of the compound. This regimen was continued for another hour after the administration.
# Compound 1 in a dose of 250 mg/kg of body weight was administered as 0.5 ml of prepared suspension in 0.5% CMC by intragastric intubation. The animals were euthanized by decapitation for blood and brain sampling. Blood and brain samples (3 animals per time point) were taken at 0.5, 1, 2, 3, 5 and 7 hours after administration for pharmacokinetic evaluation. Blood was collected in heparinized tubes and centrifuged at 3500 RPM. Plasma was separated from formed elements and immediately frozen at −20° C. in freezer. This storage continued before transferring plasma for analysis. Serum from 6 untreated animals was used as a control and for equipment calibration with the compound. Mice brain was immediately frozen at −120° C.
# Plasma separation: Samples of experimental blood ([…]) from animals were centrifuged at 3500 rpm for 15 minutes.
# Sample preparation: A mixture of 60 μL of plasma and 180 μL of acetonitrile (MeCN) by intensive shaking (Vortex) for 30 sec. Centrifugation 32000 g for 4 min. After centrifugation the 150 μL of organic layer was injected into the HPLC column.
# Equipment: HPLC System Agilent 1290 Infinity, MS spectrometer Agilent 6460 (Agilent Technologies, Santa Clara, California, United States of America)
# HPLC conditions: Column: Agilent Eclipse Plus C18 RRHD 1.8 um 2.1×50 mm (Agilent Technologies, Santa Clara, California, United States of America), Temperature: 40° C., Flow speed: 0.4 mL/min
# Eluent: A: water, 0.1% formic acid; B: 85% acetonitrile in water, 0.1% formic acid
# Gradient: 0.0-3.0 min: 60% B (separation), 3.0-4.0 min: 60->97% B (washing and regeneration), 4.0-6.0 min: 97% B, 6.0-6.1 min: 97->60% B, 6.1-9.0 min: 60% B, Volume of sample: 2 μL. Retention time in above conditions: 2.40 min.
# MS conditions: ESI(+), MRM 400->209, Dwell time: 200 ms, Fragmentor: 135 V, Collision energy: 12, Cell Accelerator: 3 V, Gas Temp: 350° C., Gas Flow: 12 I/min, Nebulizer: 35 psi, Sheath gas Temp: 300° C., Capillary Voltage: 3500 V, Nozzle Voltage: 450 V; Diverter valve: 0.0-1.3 min: to waste; 1.3-3.0 min: to MS, data acquisition, 3.0-7.0 min: to MS, idle, 7.0- . . . min: to waste
# Brain separation: Samples of experimental brain from animals were dispersed at 25K turn/min for 3 minutes and 100 mg of each sample was balanced to a sterile container.
# Sample preparation: A mixture of 100 mg of brain and 100 μL of water was treated by zirconium balls in a homogonisator MagNA Lyser for 30 sec. 300 μL of MeCN was added and intensive shaking (Vortex) for 30 sec was performed. Centrifugation 32000 g for 4 min.
# Equipment: HPLC System Agilent 1290 Infinity, MS spectrometer Agilent 6460 (Agilent Technologies, Santa Clara, California, United States of America).
# HPLC conditions: Column: Agilent Eclipse Plus C18 RRHD 1.8 um 2.1×50 mm (Agilent Technologies, Santa Clara, California, United States of America), Temperature: 40° C., Flow speed: 0.4 mL/min.
# Eluent: A: water, 0.1% formic acid; B: 85% acetonitrile in water, 0.1% formic acid.
# Gradient: 0.0-3.0 min: 60% B (separation), 3.0-4.0 min: 60->97% B (washing and regeneration), 4.0-6.0 min: 97% B, 6.0-6.1 min: 97->60% B, 6.1-9.0 min: 60% B, Volume of sample: 2 μL.
# Retention time in above conditions: 2.40 min […]
# E. coli PQ37 = assay: Mutagenicity evaluation (SOS-chromotest); format: cell-based, Escherichia coli; settings: 10 mg/mL
# Description: Mutagenicity evaluation: Escherichia coli PQ37 strain was grown overnight at 37° C., with shaking, in Luria Broth Base supplemented with 50 μg/mL Ampicillin. Bacteria were grown to mid-logarithmic phase and adjusted to an optical density of 0.4.
# The second day, Luria Broth Base supplemented with 1.5% Agar was autoclaved for 15 minutes at 121° C. and then put into a water bath at 55° C. for 1 hour.
# 80 mL of warm agar was transferred into a plastic bottle (Milian, PETG 2019-0125) supplemented with […] ampicillin and 0.005% X-Gal (dissolved into DMF). 4 mL of E. coli PQ37 was added to the mixture and 70 mL of it was transferred into a square petri dish (Grenier Bio-One, Kremsmunster, Austria, 120×120 mm). Petri dish containing the mixture was dried 15 minutes at RT and once the mixture became solid, 6 mm absorbent disks were stuck on the plate.
# 5 μL of each compound were added on the disk with a pipet sold under the tradename PIPETMAN® P20 (Gilson S.A.S., Villiers-Le-Bel, France) and the petri dish was incubated overnight at 37° C.
# The third day, zones of inhibition were recorded with a ruler and a picture of the plate was taken with a scanner (Canon 8800F, Cannon U.S.A., Inc., Melville, New York, United States of America).
# Zone of inhibition was calculated by eye using a ruler and presence/absence of blue halo was reporter.
compound,measurement,setting,value
"Nc1nc(Nc2ccc(Cl)cc2)nn1S(=O)(=O)c1ccc2ccccc2c1 [Compound 1, N3-(4-chlorophenyl)-1-(2-naphthylsulfonyl)-1,2,4-triazole-3,5-diamine]",AUC(0-inf),"[1]; 250 mg/kg, mean of mice groups",6220 ng·h/mL
same,MRT,"[1]; 250 mg/kg, mean of mice groups",5.9 h
same,half-life,"[1]; 250 mg/kg, mean of mice groups",4.1 h
same,AUC(0-t),"[1]; 250 mg/kg, mean of mice groups",4050 ng·h/mL
same,AUC(0-inf),"[1]; 250 mg/kg, mice group 1",6230 ng·h/mL
same,Cmax,"[1]; 250 mg/kg, mice group 1",1050 ng/mL
same,MRT,"[1]; 250 mg/kg, mice group 1",7.4 h
same,half-life,"[1]; 250 mg/kg, mice group 1",5 h
same,AUC(0-t),"[1]; 250 mg/kg, mice group 1",3710 ng·h/mL
same,AUC(0-inf),"[1]; 250 mg/kg, mice group 2",6890 ng·h/mL
same,Cmax,"[1]; 250 mg/kg, mice group 2",1170 ng/mL
same,MRT,"[1]; 250 mg/kg, mice group 2",6.8 h
same,half-life,"[1]; 250 mg/kg, mice group 2",5 h
same,AUC(0-inf),"[1]; 250 mg/kg, mice group 3",5550 ng·h/mL
same,Cmax,"[1]; 250 mg/kg, mice group 3",1350 ng/mL
same,MRT,"[1]; 250 mg/kg, mice group 3",3.6 h
same,half-life,"[1]; 250 mg/kg, mice group 3",2.4 h
same,AUC(0-t),"[1]; 250 mg/kg, mice group 3",4080 ng·h/mL
same,concentrations of the compound in brain,"[1]; mice, preliminary, 250 mg/kg",1-5 μg/ml and 2.5-12.5 μM
same,CL,[1]; mean of mice groups,0.809 L/h
same,Kel,[1]; mean of mice groups,0.1872 h⁻¹
same,Vd,[1]; mean of mice groups,4.8 L
same,CL,[1]; mice group 1,0.803 L/h
same,Kel,[1]; mice group 1,0.1382 h⁻¹
same,Vd,[1]; mice group 1,5.8 L
same,CL,[1]; mice group 2,0.725 L/h
same,Kel,[1]; mice group 2,0.1381 h⁻¹
same,Vd,[1]; mice group 2,5.3 L
same,CL,[1]; mice group 3,0.901 L/h
same,Kel,[1]; mice group 3,0.2852 h⁻¹
same,Vd,[1]; mice group 3,3.2 L
same,Genotoxicity in the SOS-chromotest,E. coli PQ37,did not appear to be genotoxic
